Data reported in the NIST ThermoML archive (doi:10.1021/je700300y).

Test: xn = mol fraction of the nth substance listed
Conditions: 101 kPa, Liquid

CCO [ethanol] + O
mass density [kg/m3]
Conditions | 283.15 K | 288.15 K | 293.15 K | 298.15 K | 303.15 K | 308.15 K | 313.15 K
x2 = 0.0805 | 808.05 | 803.79 | 799.51 | 795.19 | 790.85 | 786.45 | 782.01
x2 = 0.1584 | 818.14 | 813.87 | 809.57 | 805.23 | 800.84 | 796.41 | 791.93
x2 = 0.2376 | 828.89 | 824.61 | 820.29 | 815.93 | 811.53 | 807.07 | 802.5
x2 = 0.3322 | 842.93 | 838.67 | 834.37 | 830.01 | 825.61 | 821.15 | 816.63
x2 = 0.4026 | 854.12 | 849.89 | 845.61 | 841.27 | 836.89 | 832.45 | 827.94
x2 = 0.491 | 869.86 | 865.67 | 861.44 | 857.16 | 852.81 | 848.4 | 843.95
x2 = 0.5806 | 888.19 | 884.08 | 879.93 | 875.71 | 871.44 | 867.11 | 862.72
x2 = 0.648 | 903.57 | 899.55 | 895.48 | 891.35 | 887.16 | 882.91 | 878.59
x2 = 0.7185 | 921.65 | 917.78 | 913.84 | 909.85 | 905.8 | 901.68 | 897.49
x2 = 0.8009 | 944.6 | 941.07 | 937.48 | 933.81 | 930.07 | 926.25 | 922.34
x2 = 0.8813 | 965.96 | 963.49 | 960.85 | 958.06 | 955.13 | 952.05 | 948.82
x2 = 0.9605 | 984.04 | 983.11 | 981.89 | 980.42 | 978.75 | 976.91 | 974.89

CO [methanol] + O
mass density [kg/m3]
Conditions | 283.15 K | 288.15 K | 293.15 K | 298.15 K | 303.15 K | 308.15 K | 313.15 K
x2 = 0.0871 | 814.96 | 810.44 | 805.91 | 801.35 | 796.78 | 792.17 | 787.52
x2 = 0.1529 | 826.26 | 821.86 | 817.44 | 812.99 | 808.5 | 803.98 | 799.41
x2 = 0.2395 | 841.8 | 837.53 | 833.23 | 828.9 | 824.53 | 820.11 | 815.64
x2 = 0.3306 | 859.01 | 854.89 | 850.73 | 846.53 | 842.28 | 837.98 | 833.61
x2 = 0.4064 | 873.83 | 869.85 | 865.81 | 861.73 | 857.59 | 853.4 | 849.13
x2 = 0.4788 | 888.32 | 884.5 | 880.62 | 876.68 | 872.67 | 868.59 | 864.45
x2 = 0.5552 | 904.06 | 900.44 | 896.75 | 893 | 889.17 | 885.26 | 881.28
x2 = 0.6365 | 921.03 | 917.69 | 914.28 | 910.78 | 907.2 | 903.52 | 899.76
x2 = 0.7321 | 941.06 | 938.2 | 935.24 | 932.18 | 929.02 | 925.74 | 922.36
x2 = 0.7901 | 952.73 | 950.29 | 947.7 | 945 | 942.19 | 939.27 | 936.09
x2 = 0.8807 | 970.64 | 969.11 | 967.39 | 965.47 | 963.37 | 961.09 | 958.65
x2 = 0.964 | 988.96 | 988.25 | 987.25 | 986 | 984.5 | 982.79 | 980.87
